{
  "source": "patent US20180085452A1",
  "about": "“MATRIX-EMBEDDED TOLERANCE-PROMOTING ADJUVANTS FOR SUBCUTANEOUS IMMUNOTHERAPY” (Tolerogenics S.a.r.l,, priority 2016, published 2018)",
  "key": {"rats": {"system": "rats", "details": "cited from earlier work"}, "[1]": {"details": "cited from earlier work"}, "calcium metabolism": {"system": "calcium metabolism", "details": "in vivo studies in rats; cited from earlier work"}, "[2]": {"details": "cited from earlier work", "remark": "listed apart in the source"}, "type 1 diabetes": {"system": "type 1 diabetes", "details": "cited from earlier work"}, "[3]": {"assay": "in vitro release of DexP from PLGA-PEG-PLGA hydrogel", "format": "physicochemical", "details": "37° C., PBS", "protocol": "A 20 mM stock solution of DexP in PBS (10.3 mg/ml; MW 516.4; Sigma-Aldrich) is diluted 1:40 in PBS (final concentration: 0.5 mM), and 20 μl of the diluted stock solution is combined with 160 μl of 25% gel solution and 20 μl of 10× PBS (final concentration of DexP: 0.05 mM).\nThe mixture of is incubated for 2 minutes at 37° C. to induce gelling and overlayed with 200 μl of 1× PBS. At frequent time points the supernatant is removed by pipetting and stored at 4° C. The removed supernatant is replaced by fresh 200 μl of 1× PBS. Controls of the same concentration of DexP in 1× PBS without gel are incubated and sampled in parallel.\nReleased DexP is determined with a spectrophotometric method (Singh and Verma, 2008). The method involves oxidation of the corticosteroid by iron (III) and subsequent complexation of iron (II) with potassium hexacynoferate (III), forming a bluish green coloured complex with maximum absorbance at 780 nm (Beer's law range: 10-50 μg/ml; molar absorptivity (M^−1cm^−1): for DexP 0.55×10^4)."}, "rheumatoid arthritis [4]": {"system": "rheumatoid arthritis", "set-up": "patients going into remission: dose or concentration left out as unconfirmed", "details": "on methotrexate therapy, cited from earlier work"}, "[5]": {"details": "cited from earlier work", "remark": "listed apart in the source"}, "phagocytes": {"system": "phagocytes", "details": "approximately a threefold increase; cited from earlier work"}, "[6]": {"details": "during the first 24 hours; EP14075015.9; cited from earlier work"}, "[7]": {"system": "TNFR1-mediated activation of NF-κB", "details": "cited from earlier work"}, "mice": {"system": "mice", "details": "cited from earlier work"}, "[8]": {"system": "experimental autoimmune encephalomyelitis (EAE)", "details": "i.p. 5 μg/kg body weight every 2 days; cited from earlier work"}, "[9]": {"details": "cited from earlier work", "remark": "listed apart in the source"}, "patients with RA": {"system": "patients with RA", "details": "placebo 22.0%, cited from earlier work"}, "rheumatoid arthritis [10]": {"system": "rheumatoid arthritis", "details": "placebo 29.2%, cited from earlier work"}, "[11]": {"details": "cited from earlier work", "remark": "listed apart in the source"}, "[12]": {"details": "cited from earlier work", "remark": "listed apart in the source"}, "[13]": {"details": "rodents; cited from earlier work"}},
  "note": "Values joined by “and” are separate entries in the source; they are usually repeats but may differ in a detail not shown here. Equal values may be shown once. “Also recorded” adds a separate entry of the source. Read-outs that look alike come from different tables or passages of the source.",
  "data": [
    {"compound": "C=C1/C(=C\\C=C2/CCC[C@]3(C)[C@@H]([C@H](C)/C=C/[C@@H](O)C4CC4)CC[C@@H]23)C[C@@H](O)C[C@@H]1O", "note": "[calcipotriol]", "values": [
      {"measurement": "single s.c. dose up to which no death occurred", "setting": "rats", "result": "≤ 540", "unit": "μg/kg body weight"},
      {"measurement": "applied dose absorbed systemically", "setting": "[1]; ointment applied to normal skin", "result": "~5", "unit": "%"},
      {"measurement": "applied dose absorbed systemically", "setting": "[1]; ointment applied topically to psoriasis plaques", "result": "approximately 6%"},
      {"measurement": "effect on calcium metabolism, times less than calcitriol", "setting": "calcium metabolism", "result": "100-200 times"},
      {"measurement": "rate of clearance, times higher than for calcitriol", "setting": "[2]; rat, in vivo", "result": "approximately 140 times"},
      {"measurement": "half-life in circulation (serum half-life)", "setting": "[2]; rats", "result": 4, "unit": "min"}
    ]},
    {"compound": "vitamin D", "values": [
      {"measurement": "relative risk of type 1 diabetes over the subsequent 30 years", "setting": "type 1 diabetes; doses of exactly 50 μg/day", "result": 0.22},
      {"measurement": "relative risk of type 1 diabetes over the subsequent 30 years", "setting": "type 1 diabetes; doses of over 50 μg/day (2000 IU/d) during infancy", "result": 0.14}
    ]},
    {"compound": "C[C@@H]1C[C@H]2[C@@H]3CCC4=CC(=O)C=C[C@]4(C)[C@@]3(F)[C@@H](O)C[C@]2(C)[C@@]1(O)C(=O)COP(=O)(O)O", "note": "[DexP, dexamethasone sodium phosphate]", "values": [
      {"measurement": "hydrogel-embedded DexP released", "setting": "[3]; after 2 days", "result": "80-90%"},
      {"measurement": "hydrogel-embedded DexP released", "setting": "[3]; within the first 6 hours", "result": "30-50%"}
    ]},
    {"compound": "C=C1/C(=C\\C=C2/CCC[C@]3(C)[C@@H]([C@H](C)CCCC(C)C)CC[C@@H]23)C[C@@H](O)C[C@@H]1O", "note": "[alfacalcidiol]", "values": [
      {"measurement": "patients with improvement of disease activity", "setting": "rheumatoid arthritis [4]; 2 pg/day for 3 months", "result": 89, "unit": "%"},
      {"measurement": "patients going into remission", "setting": "rheumatoid arthritis [4]; for 3 months", "result": 45, "unit": "%"}
    ]},
    {"compound": "C[C@@H]1CCN(C(=O)CC#N)C[C@@H]1N(C)c1ncnc2[nH]ccc12", "note": "[free base of tofacitinib, tofacitinib]", "values": [
      {"measurement": "solubility in DMSO", "setting": "[5]; DMSO", "result": 100, "unit": "mg/mL"},
      {"measurement": "solubility in ethanol", "setting": "[5]", "result": 100, "unit": "mg/mL"},
      {"measurement": "maximum solubility in plain water", "setting": "[5]; plain water, estimated", "result": "10-20 μM and 3.12-6.24 μg/ml"}
    ]},
    {"compound": "O=c1ccn([C@@H]2O[C@H](COP(=O)(O)OP(=O)(O)OP(=O)(O)O)[C@@H](O)[C@H]2O)c(=O)[nH]1", "note": "[UTP]", "values": [
      {"measurement": "concentration effecting maximal migration of phagocytes", "setting": "phagocytes", "result": "about 100 nM"},
      {"measurement": "released from the hydrogel", "setting": "[6]", "result": "approx. 60%"}
    ]},
    {"compound": "Nc1ncnc2c1ncn2[C@@H]1O[C@H](COP(=O)(O)OP(=O)(O)OP(=O)(O)O)[C@@H](O)[C@H]1O", "note": "[ATP]", "values": [
      {"measurement": "solubility in ethanol", "setting": "[5]; 25° C.", "result": "less than 1 mg/ml"},
      {"measurement": "concentration effecting maximal migration of phagocytes", "setting": "phagocytes", "result": "about 100 nM"},
      {"measurement": "released from the hydrogel", "setting": "[6]", "result": "approx. 60%"}
    ]},
    {"compound": "O=C([O-])c1ccccc1O.[Na+]", "note": "[sodium salicylate]", "values": [
      {"measurement": "dose required for inhibition of TNFR1-mediated activation of NF-κB", "setting": "[7]", "result": "10 to 20", "unit": "mM"}
    ]},
    {"compound": "C=C1/C(=C\\C=C2/CCC[C@]3(C)[C@@H]([C@H](C)CCCC(C)(C)O)CC[C@@H]23)C[C@@H](O)C[C@@H]1O", "note": "[calcitriol, 1α,25-dihydroxyvitamin D3]", "values": [
      {"measurement": "solubility in a 1:5 solution of ethanol:PBS", "setting": "[5]; 1:5 ethanol:PBS, pH 7.2", "result": "approx. 0.15 mg/ml"},
      {"measurement": "dose that can be administered as a single bolus i.p. injection", "setting": "mice; in 0.2 ml of normal saline", "result": "up to 500 ng/mouse"},
      {"measurement": "dose above which mice can become hypercalcemic on day 2 or day 3", "setting": "mice; single bolus i.p.", "result": "higher than 750 ng/mouse"},
      {"measurement": "treated mice in which appearance of paralysis was prevented", "setting": "[8]", "result": 70, "unit": "%"},
      {"measurement": "single oral dose relatively well tolerated (only grade 1 to 2 adverse events)", "setting": "[9]", "result": "up to 165 μg"}
    ]},
    {"compound": "C[C@@H]1CCN(C(=O)CC#N)C[C@@H]1N(C)c1ncnc2[nH]ccc12", "note": "[tofacitinib]", "values": [
      {"measurement": "ACR20 response at week 12", "setting": "patients with RA; 3 mg orally twice a day", "result": 39.2, "unit": "%"},
      {"measurement": "ACR20 response at week 12", "setting": "patients with RA; 5 mg orally twice a day", "result": 59.2, "unit": "%"},
      {"measurement": "ACR20 response at week 12", "setting": "patients with RA; 10 mg orally twice a day", "result": 70.5, "unit": "%"},
      {"measurement": "ACR20 response at week 12", "setting": "patients with RA; 15 mg orally twice a day", "result": 71.9, "unit": "%"},
      {"measurement": "ACR20 response rate by week 6", "setting": "rheumatoid arthritis [10]; 5 mg twice daily", "result": 70.5, "unit": "%"},
      {"measurement": "ACR20 response rate by week 6", "setting": "rheumatoid arthritis [10]; 15 mg twice daily", "result": 81.2, "unit": "%"},
      {"measurement": "ACR20 response rate by week 6", "setting": "rheumatoid arthritis [10]; 30 mg twice daily", "result": 76.8, "unit": "%"},
      {"measurement": "in vivo half-life", "setting": "[11]", "result": "2 to 3", "unit": "h"}
    ]},
    {"compound": "C=C1CC[C@H](O)C/C1=C/C=C1\\CCC[C@]2(C)[C@@H]([C@H](C)CCCC(C)(C)O)CC[C@@H]12", "note": "[calcidiol, 25-hydroxyvitamin D3]", "values": [
      {"measurement": "plasma concentration that can produce vitamin D toxicity", "setting": "[12]; Jones (2008)", "result": "above 0.75 μM; also recorded: approx. 300 ng/ml"},
      {"measurement": "calcidiol level at which toxicity occurs", "setting": "[12]; Shephard and DeLuca (1980)", "result": "≥ 500 ng/ml and approx. 1.25 μM"},
      {"measurement": "plasma concentrations tolerated with normo-calcemia", "setting": "[13]", "result": "250 to 1000", "unit": "nM"}
    ]}
  ]
}
